Results taken from patent publication US20230271949A1, “GLP-1R MODULATING COMPOUNDS” (ASCLETIS BIOSCIENCE CO., LTD., priority 2022, published 2023).

biological target: GLP-1R (Homo sapiens, UniProt P43220); assay: GLP-1R agonist cAMP stimulation assay (HTRF cAMP); format: cell-based; conditions: HEK293 cell line expressing GLP-1 target; HTRF cAMP agonist mode, 30 min at RT
Summary of the method: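 Read-out was HTRF (665/615 ratio), interpolated onto a cAMP standard curve and normalised to DMSO (0%) and maximal GLP-1(7-37) reference (100%) wells. Assay: GLP-1R cells at 1.0×E5/mL incubated with compound dilution series (3-fold, 10 points) for 30 min at room temperature before 60 min detection.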

Chain of GLP-1R (P43220 24-463): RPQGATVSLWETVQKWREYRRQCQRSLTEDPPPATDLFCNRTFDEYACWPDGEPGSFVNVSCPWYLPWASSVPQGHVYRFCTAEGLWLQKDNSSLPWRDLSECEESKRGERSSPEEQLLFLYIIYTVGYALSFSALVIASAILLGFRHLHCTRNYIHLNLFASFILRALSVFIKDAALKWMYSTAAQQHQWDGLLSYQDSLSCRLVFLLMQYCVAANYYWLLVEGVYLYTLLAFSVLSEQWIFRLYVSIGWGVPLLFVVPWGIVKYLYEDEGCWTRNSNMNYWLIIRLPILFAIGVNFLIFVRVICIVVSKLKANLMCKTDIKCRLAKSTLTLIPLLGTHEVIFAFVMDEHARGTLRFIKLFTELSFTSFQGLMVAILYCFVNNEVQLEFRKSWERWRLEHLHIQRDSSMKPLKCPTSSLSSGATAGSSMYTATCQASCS

| SMILES | EC50 |
| --- | --- |
| Fc1cc(Cl)ccc1COc1cccc(C2=CCN(Cc3nc4cc(-n5cnc(-c6ccn[nH]6)c5)ccc4n3C[C@@H]3CCO3)CC2)n1 [Compound 396] | 146 nM |
| Cc1n[nH]c2ccc(C(=O)Nc3ccc4nc(CN5CC=C(c6cccc(OCc7ccc(Cl)cc7F)n6)CC5)n(CC5CCO5)c4c3)cc12 (centres unmarked) [Compound 278] | 3.18 nM |
| O=C(Nc1ccc2c(c1)nc(CN1CC=C(c3cccc(OCc4ccc(Cl)cc4F)n3)CC1)n2C[C@@H]1CCO1)c1ccc2[nH]ccc2c1 [Compound 393] | 15.2 nM |
| O=C(Nc1ccc2[nH]c(=O)cnc2c1)c1ccc2c(c1)nc(CN1CCC(c3cccc(OCc4ccc(Cl)cc4F)n3)CC1)n2C[C@@H]1CCO1 [Compound 84] | 17.9 nM |
| Cc1n[nH]c2c(Cl)cc(C(=O)Nc3ccc4c(c3)nc(Cc3cc(F)c(-c5cccc6c5OC(C)(c5ccc(Cl)cc5F)O6)cc3F)n4CC3CCO3)cc12 (centres unmarked) [Compound 320] | 13.7 nM |
| Cc1cc(-c2cn(-c3ccc4c(c3)nc(CN3CC=C(c5cccc(OCc6ccc(Cl)cc6F)n5)CC3)n4C[C@@H]3CCO3)cn2)[nH]n1 [Compound 397] | 127 nM |
| O=C(NCc1ccc(O)cc1)c1ccc2c(c1)nc(CN1CCC(c3cccc(OCc4ccc(Cl)cc4F)n3)CC1)n2C[C@@H]1CCO1 [Compound 24] | 90.1 nM |
| N#Cc1ccc(COc2cccc(C3=CCN(Cc4nc5cc(NC(=O)c6ccc7[nH]nc(C(F)(F)F)c7c6)ccc5n4C[C@@H]4CCO4)CC3)n2)c(F)c1 [Compound 232] | 1.26 nM |
| Cc1cc2c(C#N)ccc(COc3cccc(C4=CCN(Cc5nc6cc(C(=O)Nc7ccc8[nH]nc(C)c8c7)ccc6n5C[C@@H]5CCO5)CC4)n3)c2o1 [Compound 355] | 0.78 nM |
| Cc1n[nH]c2ncc(NC(=O)c3ccc4c(c3)nc(CN3CC=C(c5cccc(OCc6ccc(Cl)cc6F)n5)CC3)n4C[C@@H]3CCO3)nc12 [Compound 190] | 9.27 nM |
| Cc1nc2cccc(COc3cccc(C4=CCN(Cc5nc6cc(C(=O)Nc7ccc8[nH]nc(C)c8c7)ccc6n5C[C@@H]5CCO5)CC4)n3)c2s1 [Compound 369] | 2.91 nM |
| COCCn1c(CN2CCC(c3cccc(OCc4ccc(Cl)cc4F)n3)CC2)nc2cc(C(=O)NCc3ccc(O)c(C(=O)OC)c3)ccc21 [Compound 36] | > 10000 nM |
| Cc1cc(NC(=O)c2ccc3c(c2)nc(CN2CC=C(c4cccc(OCc5ccc(C#N)cc5F)n4)CC2)n3C[C@@H]2CCO2)cc2cn[nH]c12 [Compound 188] | 1.19 nM |
| Cc1cc2c(C#N)ccc(COc3cccc(C4=CCN(Cc5nc6cc(NC(=O)c7cc(F)c8[nH]nc(C)c8c7)ccc6n5C[C@@H]5CCO5)CC4)n3)c2o1 [Compound 360] | 0.19 nM |
| O=C(Nc1cc(C(F)(F)F)c2c(c1)C1(CC1)C(=O)N2)c1ccc2c(c1)nc(CN1CCC(c3cccc(OCc4ccc(Cl)cc4F)n3)CC1)n2C[C@@H]1CCO1 [Compound 107] | 1.83 nM |
| O=C(NCC(=O)N1CC(F)(F)C[C@H]1C(=O)O)c1ccc2c(c1)nc(CN1CC=C(c3cccc(OCc4ccc(Cl)cc4F)n3)CC1)n2C[C@@H]1CCO1 [Compound 72] | 0.61 nM |
| COCCn1c(CN2CCC(c3cccc(OCc4ccc(Cl)cc4F)n3)CC2)nc2cc(C(=O)NCCc3ccc(C(F)(F)F)cc3)ccc21 [Compound 23] | > 10000 nM |
| Cc1cc2cc(C(=O)Nc3ccc4c(c3)nc(CN3CC=C(c5cccc(OCc6ccc(Cl)cc6F)n5)CC3)n4C[C@@H]3CCO3)ccc2[nH]1 [Compound 394] | 21.1 nM |
| O=C(Nc1ccc2nc(CN3CC=C(c4cccc(OCc5ccc(Cl)cc5F)n4)CC3)n(CC3CCO3)c2c1)c1ccc2[nH]nc(F)c2c1 (centres unmarked) [Compound 280] | 21 nM |
| Cc1n[nH]c2c(C)cc(C(=O)Nc3ccc4c(c3)nc(C(F)(F)N3CC=C(c5cccc(OCc6ccc(Cl)cc6F)n5)CC3)n4C[C@@H]3CCO3)cc12 [Compound 256] | 12.5 nM |
| Cc1cc(NC(=O)c2ccc3c(c2)nc(CN2CCC(c4cccc(OCc5ccc(C#N)cc5F)n4)CC2)n3C[C@@H]2CCO2)cc2c1NC(=O)C21CC1 [Compound 124] | 0.17 nM |
| CC(C)c1n[nH]c2ccc(C(=O)Nc3ccc4c(c3)nc(C3CC35CCC(c3cccc(OCc6ccc(Cl)cc6F)n3)CC5)n4CC3CCO3)cc12 (centres unmarked) [Compound 251] | 2.22 nM |
| Cc1n[nH]c2ccc(NC(=O)c3ccc4c(c3)nc(CN3CC=C(c5cccc(OCc6ccc(Cl)cc6F)n5)CC3)n4C[C@@H]3CCO3)nc12 [Compound 191] | 3.69 nM |
| O=C(Nc1ccc2[nH]nc(F)c2c1)c1ccc2c(c1)nc(CN1CC=C(c3cccc(OCc4ccc(Cl)cc4F)n3)CC1)n2C[C@@H]1CCO1 [Compound 139] | 15.2 nM |
| N#Cc1ccc(COc2cccc(C3CCN(Cc4nc5cc(C(=O)NCC(=O)N6C[C@@H](F)C[C@H]6C(=O)O)ccc5n4C[C@@H]4CCO4)CC3)n2)c(F)c1 [Compound 44] | 4.36 nM |
| COc1n[nH]c2ccc(NC(=O)c3ccc4c(c3)nc(CN3CCC(c5cccc(OCc6ccc(Cl)cc6F)n5)CC3)n4C[C@@H]3CCO3)cc12 [Compound 81] | 14.5 nM |
| Cc1n[nH]c2c(F)cc(C(=O)Nc3ccc4c(c3)nc(Cc3c(F)cc(-c5cccc6c5OC(C)(c5ccc(C#N)cc5F)O6)cc3F)n4CC3CCO3)cc12 (centres unmarked) [Compound 316] | 0.54 nM |

| SMILES | EC50 |
| --- | --- |
| O=C(Nc1ccc2c(c1)C1(CC1)C(=O)N2)c1ccc2c(c1)nc(CN1CC=C(c3cccc(OCc4ccc(Cl)cc4F)n3)CC1)n2C[C@@H]1CCO1 [Compound 143] | 0.75 nM |
| Cc1cc(NC(=O)c2ccc3nc(CN4CC=C(c5cccc(OCc6ccc(Cl)cc6F)n5)CC4)n(C[C@@H]4CCO4)c3c2)cc2c1NC(=O)C21CC1 [Compound 267] | 1.99 nM |
| Cc1cc(C(=O)Nc2ccc3c(c2)nc(Cc2c(F)cc(-c4cccc5c4OC(C)(c4ccc(Cl)cc4F)O5)cc2F)n3C[C@@H]2CCO2)cc2c1NC(=O)C21CC1 (some centres unmarked) [Compound 319] | 0.43 nM |
| Cc1cc2c(C#N)ccc(COc3cccc(C4=CCN(Cc5nc6cc(C(=O)Nc7cc(F)c8[nH]nc(C)c8c7)ccc6n5C[C@@H]5CCO5)CC4)n3)c2s1 [Compound 350] | 0.51 nM |
| COC(=O)[C@@H]1CC(F)(F)CN1C(=O)[C@H](C)NC(=O)c1ccc2c(c1)nc(CN1CC=C(c3cccc(OCc4ccc(Cl)cc4F)n3)CC1)n2C[C@@H]1CCO1 [Compound 71] | 132 nM |
| CCc1n[nH]c2ccc(NC(=O)c3ccc4c(c3)nc(CN3CC=C(c5cccc(OCc6ccc(C#N)cc6F)n5)CC3)n4C[C@@H]3CCO3)cc12 [Compound 186] | 2.12 nM |
| Cc1n[nH]c2c(F)cc(NC(=O)c3cc4c(nc(CN5CC=C(c6cccc(OCc7ccc(Cl)cn7)n6)CC5)n4C[C@@H]4CCO4)s3)cc12 [Compound 406] | 99.2 nM |
| O=C(Nc1cc(F)c2c(c1)C1(CC1)C(=O)N2)c1ccc2nc(CN3CC=C(c4cccc(OCc5ccc(Cl)cc5F)n4)CC3)n(C[C@@H]3CCO3)c2c1 [Compound 271] | 0.97 nM |
| CC1(c2ccc(Cl)cc2F)Oc2cccc(C3=CCN(Cc4nc5cc(NC(=O)c6cc(F)c7c(c6)C6(CC6)C(=O)N7)ccc5n4C[C@@H]4CCO4)CC3)c2O1 (some centres unmarked) [Compound 314] | 0.63 nM |
| Cc1n[nH]c2c(F)cc(C(=O)Nc3ccc4nc(CN5CC=C(c6cccc(OCc7ccc(C#N)cc7F)n6)CC5)n(CC5CCO5)c4c3)cc12 (centres unmarked) [Compound 289] | 0.99 nM |
| N#Cc1ccc(COc2cccc(C3=CCN(Cc4nc5cc(C(=O)Nc6ccc7[nH]nc(C(F)(F)F)c7c6)ccc5n4C[C@@H]4CCO4)CC3)n2)c(F)c1 [Compound 184] | 1.57 nM |
| O=C(NCc1ccc2[nH][nH]c(=O)c2c1)c1ccc2c(c1)nc(CN1CCC(c3cccc(OCc4ccc(Cl)cc4F)n3)CC1)n2C[C@@H]1CCO1 [Compound 76] | 9.04 nM |
| O=C(O)CNC(=O)c1ccc2c(c1)nc(CN1CCC(c3cccc(OCc4ccc(Cl)cc4F)n3)CC1)n2C[C@@H]1CCO1 [Compound 50] | 34 nM |
| COCCn1c(CN2CCC(c3cccc(OCc4ccc(Cl)cc4F)n3)CC2)nc2cc(C(=O)NCc3ccc(O)nc3)ccc21 [Compound 34] | 90.1 nM |
| O=C(Nc1ccc2c(c1)nc(CN1CC=C(c3cccc(OCc4ccc(Cl)cc4F)n3)CC1)n2C[C@@H]1CCO1)c1ccc2[nH]ncc2c1 [Compound 204] | 0.63 nM |
| Cc1n[nH]c2ccc(NC(=O)c3ccc4nc(CN5CC=C(c6cccc(OCc7ccc(C#N)cc7F)n6)CC5)n(CC5CCO5)c4c3)cc12 (centres unmarked) [Compound 275] | 6.21 nM |
| Cc1n[nH]c2c(C)cc(NC(=O)c3ccc4c(c3)nc(CN3CC=C(c5cccc6c5OC(C)(c5ccc(C#N)cc5F)O6)CC3)n4CC3CCO3)cc12 (centres unmarked) [Compound 299] | 0.16 nM |
| Cc1cc(NC(=O)c2ccc3c(c2)nc(CN2CCC(c4cccc(OCc5ccc(Cl)cc5F)n4)CC2)n3C[C@@H]2CCO2)c(C)c2c(C)n[nH]c12 [Compound 120] | 15.3 nM |
| Cc1cc2c(C#N)ccc(COc3cccc(C4=CCN(Cc5nc6cc(C(=O)Nc7ccc8[nH]nc(C(F)(F)F)c8c7)ccc6n5C[C@@H]5CCO5)CC4)n3)c2o1 [Compound 356] | 2.21 nM |
| Cc1n[nH]c2cnc(C(=O)Nc3ccc4c(c3)nc(CN3CC=C(c5cccc(OCc6ccc(Cl)cc6F)n5)CC3)n4C[C@@H]3CCO3)nc12 [Compound 240] | 20.7 nM |
| Cc1n[nH]c2c(Cl)cc(C(=O)Nc3ccc4c(c3)nc(CN3CC=C(c5cccc(OCc6ccc(Cl)cc6F)n5)CC3)n4C[C@@H]3CCO3)cc12 [Compound 214] | 1.21 nM |
| Cc1n[nH]c2ccc(NC(=O)c3ccc4c(c3)nc(CN3CCC(c5cccc(OCc6c(F)cnc7ccccc67)n5)CC3)n4C[C@@H]3CCO3)cc12 [Compound 380] | 6.91 nM |
| Cc1n[nH]c2c(F)cc(NC(=O)c3ccc4c(c3)nc(CN3CCC(c5cccc(OCc6cc(F)c(C#N)s6)n5)CC3)n4C[C@@H]3CCO3)cc12 [Compound 375] | 1.01 nM |
| CCc1n[nH]c2ccc(C(=O)Nc3ccc4c(c3)nc(CN3CC=C(c5cccc6c5OC(C)(c5ccc(C#N)cc5F)O6)CC3)n4CC3CCO3)cc12 (centres unmarked) [Compound 310] | 0.93 nM |
| Cc1cc2c(C#N)ccc(COc3cccc(C4CCN(Cc5nc6cc(NC(=O)c7ccc8[nH]nc(C)c8c7)ccc6n5C[C@@H]5CCO5)CC4)n3)c2o1 [Compound 370] | 5.12 nM |
| O=C(NCC(=O)N1C[C@@H](O)C[C@H]1C(=O)O)c1ccc2c(c1)nc(CN1CCC(c3cccc(OCc4ccc(Cl)cc4F)n3)CC1)n2C[C@@H]1CCO1 [Compound 45] | 1.39 nM |
